Results from publication PMC6704710, “Preclinical evaluation of 3D185, a novel potent inhibitor of FGFR1/2/3 and CSF-1R, in FGFR-dependent and macrophage-dominant cancer models” (Journal of Experimental & Clinical Cancer Research : CR, 2019).

Tests used:
Assay in all cases: Eurofins kinase panel
Format in all cases: biochemical
Details in all cases: read-out: Inhibition rate (%)
CK2(h) = molecular target: T1, CK2(h) (Homo sapiens, UniProt P68400)
T1 construct: purchased Eurofins (KinaseProfiler)
T1 sequence (P68400 whole entry): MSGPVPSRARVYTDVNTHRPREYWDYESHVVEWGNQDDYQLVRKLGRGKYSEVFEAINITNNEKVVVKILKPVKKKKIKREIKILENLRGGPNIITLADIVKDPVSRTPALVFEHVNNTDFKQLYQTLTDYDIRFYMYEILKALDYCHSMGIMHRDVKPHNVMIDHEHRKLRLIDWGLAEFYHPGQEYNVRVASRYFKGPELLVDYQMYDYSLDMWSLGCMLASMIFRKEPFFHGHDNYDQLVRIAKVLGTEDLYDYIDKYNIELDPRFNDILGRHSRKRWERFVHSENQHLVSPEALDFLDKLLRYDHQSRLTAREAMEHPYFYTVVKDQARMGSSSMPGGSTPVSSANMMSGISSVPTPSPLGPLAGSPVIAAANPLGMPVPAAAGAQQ
T1 sequence (P67870 whole entry partner): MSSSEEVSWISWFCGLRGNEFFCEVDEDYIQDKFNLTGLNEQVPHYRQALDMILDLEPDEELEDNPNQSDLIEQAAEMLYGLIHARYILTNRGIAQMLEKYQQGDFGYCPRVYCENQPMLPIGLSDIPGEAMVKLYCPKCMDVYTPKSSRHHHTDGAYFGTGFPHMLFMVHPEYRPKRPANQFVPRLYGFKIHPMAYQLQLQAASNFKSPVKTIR

BRK(h) = molecular target: T2, BRK(h) (Homo sapiens, UniProt Q13882)
T2 construct: purchased Eurofins (KinaseProfiler)
T2 sequence (Q13882 whole entry): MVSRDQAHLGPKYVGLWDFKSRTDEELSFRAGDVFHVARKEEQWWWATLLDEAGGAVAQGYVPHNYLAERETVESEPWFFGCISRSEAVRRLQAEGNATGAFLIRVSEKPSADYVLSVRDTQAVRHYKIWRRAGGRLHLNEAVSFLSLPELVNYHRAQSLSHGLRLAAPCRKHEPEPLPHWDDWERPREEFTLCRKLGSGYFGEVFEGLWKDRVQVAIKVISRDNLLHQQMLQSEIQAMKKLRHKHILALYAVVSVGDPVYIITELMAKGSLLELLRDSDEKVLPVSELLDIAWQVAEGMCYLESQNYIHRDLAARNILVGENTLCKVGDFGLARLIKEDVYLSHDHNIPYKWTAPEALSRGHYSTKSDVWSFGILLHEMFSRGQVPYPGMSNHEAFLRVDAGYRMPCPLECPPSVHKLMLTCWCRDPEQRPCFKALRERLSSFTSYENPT

[1] = molecular target: T3, PI3 Kinase (p110α(E542K)/p85α)(h) (Homo sapiens, UniProt P42336, E542K)
T3 construct: purchased Eurofins (KinaseProfiler)

JAK1(h) = molecular target: T4, JAK1(h) (Homo sapiens, UniProt P23458)
T4 construct: purchased Eurofins (KinaseProfiler)
T4 sequence (P23458 whole entry): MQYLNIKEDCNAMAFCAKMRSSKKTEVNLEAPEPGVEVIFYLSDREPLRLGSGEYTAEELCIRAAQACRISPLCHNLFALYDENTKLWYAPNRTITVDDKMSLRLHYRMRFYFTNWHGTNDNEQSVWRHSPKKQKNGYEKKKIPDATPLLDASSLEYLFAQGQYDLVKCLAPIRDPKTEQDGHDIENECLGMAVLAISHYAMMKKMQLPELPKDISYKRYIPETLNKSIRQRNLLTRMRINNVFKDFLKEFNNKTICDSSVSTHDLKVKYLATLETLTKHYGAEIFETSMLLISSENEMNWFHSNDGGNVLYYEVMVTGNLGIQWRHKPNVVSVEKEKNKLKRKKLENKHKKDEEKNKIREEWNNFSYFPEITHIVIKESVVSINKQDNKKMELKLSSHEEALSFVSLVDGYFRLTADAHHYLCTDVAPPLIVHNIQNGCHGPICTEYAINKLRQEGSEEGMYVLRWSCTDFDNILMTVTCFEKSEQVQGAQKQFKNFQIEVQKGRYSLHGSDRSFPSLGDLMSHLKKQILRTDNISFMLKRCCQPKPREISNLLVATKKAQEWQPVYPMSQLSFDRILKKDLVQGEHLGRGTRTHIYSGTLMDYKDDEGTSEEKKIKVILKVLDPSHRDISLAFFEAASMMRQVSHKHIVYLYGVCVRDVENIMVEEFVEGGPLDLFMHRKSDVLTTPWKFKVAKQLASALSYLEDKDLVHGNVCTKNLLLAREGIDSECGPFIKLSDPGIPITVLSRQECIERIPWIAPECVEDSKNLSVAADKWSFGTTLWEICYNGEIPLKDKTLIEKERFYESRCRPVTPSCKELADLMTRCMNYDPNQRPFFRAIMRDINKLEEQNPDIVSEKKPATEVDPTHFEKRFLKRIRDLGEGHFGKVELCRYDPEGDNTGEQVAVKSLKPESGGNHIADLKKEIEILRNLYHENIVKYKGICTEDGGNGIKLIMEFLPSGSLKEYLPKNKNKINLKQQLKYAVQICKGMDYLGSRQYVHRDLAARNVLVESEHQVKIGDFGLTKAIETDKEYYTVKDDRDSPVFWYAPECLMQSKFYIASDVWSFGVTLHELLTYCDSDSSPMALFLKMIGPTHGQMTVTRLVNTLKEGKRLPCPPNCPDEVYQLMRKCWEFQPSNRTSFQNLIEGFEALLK

NEK9(h) = molecular target: T5, NEK9(h) (Homo sapiens, UniProt Q8TD19)
T5 construct: purchased Eurofins (KinaseProfiler)
T5 sequence (Q8TD19 1-979): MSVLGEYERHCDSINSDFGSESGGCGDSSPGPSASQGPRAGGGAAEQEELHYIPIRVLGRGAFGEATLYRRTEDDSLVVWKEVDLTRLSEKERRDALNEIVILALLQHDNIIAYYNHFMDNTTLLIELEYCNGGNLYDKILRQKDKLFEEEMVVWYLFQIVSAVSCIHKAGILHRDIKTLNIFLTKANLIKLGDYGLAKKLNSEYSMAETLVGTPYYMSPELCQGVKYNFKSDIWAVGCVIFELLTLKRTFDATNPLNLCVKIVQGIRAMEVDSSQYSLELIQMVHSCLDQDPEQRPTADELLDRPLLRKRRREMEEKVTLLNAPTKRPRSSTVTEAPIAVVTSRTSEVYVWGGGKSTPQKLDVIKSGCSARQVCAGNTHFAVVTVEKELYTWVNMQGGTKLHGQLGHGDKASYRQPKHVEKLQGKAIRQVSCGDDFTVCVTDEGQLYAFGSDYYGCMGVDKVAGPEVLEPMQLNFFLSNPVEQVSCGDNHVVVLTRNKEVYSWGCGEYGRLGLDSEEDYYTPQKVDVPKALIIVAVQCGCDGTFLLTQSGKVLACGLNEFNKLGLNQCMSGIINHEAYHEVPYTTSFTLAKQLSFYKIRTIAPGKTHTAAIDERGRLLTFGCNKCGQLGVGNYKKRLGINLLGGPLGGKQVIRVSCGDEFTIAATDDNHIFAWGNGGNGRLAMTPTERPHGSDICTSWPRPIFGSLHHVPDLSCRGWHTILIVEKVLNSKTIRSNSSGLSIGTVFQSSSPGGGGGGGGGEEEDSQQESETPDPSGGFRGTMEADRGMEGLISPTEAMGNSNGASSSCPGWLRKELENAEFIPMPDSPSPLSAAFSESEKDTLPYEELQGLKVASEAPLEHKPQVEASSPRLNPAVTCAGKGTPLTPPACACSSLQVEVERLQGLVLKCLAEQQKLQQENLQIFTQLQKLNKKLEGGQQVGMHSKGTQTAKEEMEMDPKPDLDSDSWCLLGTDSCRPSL

TGFBR2(h) = molecular target: T6, TGFBR2(h) (Homo sapiens, UniProt P37173)
T6 construct: purchased Eurofins (KinaseProfiler)
T6 sequence (P37173 23-567): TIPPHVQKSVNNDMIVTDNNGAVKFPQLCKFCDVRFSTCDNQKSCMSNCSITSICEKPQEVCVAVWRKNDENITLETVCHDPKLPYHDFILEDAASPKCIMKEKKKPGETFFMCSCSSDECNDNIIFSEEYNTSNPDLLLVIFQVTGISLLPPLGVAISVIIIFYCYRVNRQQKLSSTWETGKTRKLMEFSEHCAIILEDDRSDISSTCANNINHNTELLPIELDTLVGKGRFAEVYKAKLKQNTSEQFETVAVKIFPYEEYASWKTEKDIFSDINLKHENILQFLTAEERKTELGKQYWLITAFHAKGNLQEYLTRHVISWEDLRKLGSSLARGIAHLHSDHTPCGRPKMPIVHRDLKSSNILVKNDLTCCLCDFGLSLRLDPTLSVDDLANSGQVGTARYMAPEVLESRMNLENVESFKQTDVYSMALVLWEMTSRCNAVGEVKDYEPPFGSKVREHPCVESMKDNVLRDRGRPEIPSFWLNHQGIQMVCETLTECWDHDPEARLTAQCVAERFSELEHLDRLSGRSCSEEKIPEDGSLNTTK

MEK1(h) = molecular target: T7, MEK1(h) (Homo sapiens, UniProt Q02750)
T7 construct: purchased Eurofins (KinaseProfiler)
T7 sequence (Q02750 whole entry): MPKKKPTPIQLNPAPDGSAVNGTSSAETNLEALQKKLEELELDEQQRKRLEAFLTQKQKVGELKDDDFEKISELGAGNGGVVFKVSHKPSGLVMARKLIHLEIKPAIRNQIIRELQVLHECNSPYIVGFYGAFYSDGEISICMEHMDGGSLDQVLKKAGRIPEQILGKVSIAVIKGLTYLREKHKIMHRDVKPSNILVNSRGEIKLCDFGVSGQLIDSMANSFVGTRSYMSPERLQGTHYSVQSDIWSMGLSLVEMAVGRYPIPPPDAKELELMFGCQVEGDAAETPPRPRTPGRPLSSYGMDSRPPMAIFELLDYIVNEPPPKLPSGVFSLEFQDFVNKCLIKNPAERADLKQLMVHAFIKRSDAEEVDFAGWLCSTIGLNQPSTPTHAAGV

TSSK3(h) = molecular target: T8, TSSK3(h) (Homo sapiens, UniProt Q96PN8)
T8 construct: purchased Eurofins (KinaseProfiler)
T8 sequence (Q96PN8 1-268): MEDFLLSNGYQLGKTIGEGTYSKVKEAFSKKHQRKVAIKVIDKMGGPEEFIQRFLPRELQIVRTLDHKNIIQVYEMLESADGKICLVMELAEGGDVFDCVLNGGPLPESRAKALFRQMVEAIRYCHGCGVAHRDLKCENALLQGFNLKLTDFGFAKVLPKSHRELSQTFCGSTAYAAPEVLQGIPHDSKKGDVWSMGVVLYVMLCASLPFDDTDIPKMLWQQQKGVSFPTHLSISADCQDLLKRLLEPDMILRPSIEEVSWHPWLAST

DYRK3(h) = molecular target: T9, DYRK3(h) (Homo sapiens, UniProt O43781)
T9 construct: purchased Eurofins (KinaseProfiler)
T9 sequence (O43781 1-588): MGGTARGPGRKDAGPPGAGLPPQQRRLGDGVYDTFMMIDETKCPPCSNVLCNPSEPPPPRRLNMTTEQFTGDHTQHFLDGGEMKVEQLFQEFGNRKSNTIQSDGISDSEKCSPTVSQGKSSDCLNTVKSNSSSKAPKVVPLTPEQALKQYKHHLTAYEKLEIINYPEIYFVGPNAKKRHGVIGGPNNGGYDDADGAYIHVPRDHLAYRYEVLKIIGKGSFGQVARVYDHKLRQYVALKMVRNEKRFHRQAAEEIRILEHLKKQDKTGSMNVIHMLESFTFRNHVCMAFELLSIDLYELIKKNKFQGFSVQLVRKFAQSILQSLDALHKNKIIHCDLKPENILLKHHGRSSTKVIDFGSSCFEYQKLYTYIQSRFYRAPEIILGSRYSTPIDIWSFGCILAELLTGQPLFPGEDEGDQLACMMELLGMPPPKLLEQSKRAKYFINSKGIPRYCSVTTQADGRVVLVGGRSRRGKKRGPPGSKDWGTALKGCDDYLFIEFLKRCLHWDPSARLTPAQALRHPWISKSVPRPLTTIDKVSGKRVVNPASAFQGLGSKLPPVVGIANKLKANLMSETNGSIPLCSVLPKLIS

Met(Y1248D)(h) = molecular target: T10, Met(Y1248D)(h) (Homo sapiens, UniProt P08581, Y1230D)
T10 construct: purchased Eurofins (KinaseProfiler)
T10 sequence (P08581 956-1390 Y1230D limits assumed): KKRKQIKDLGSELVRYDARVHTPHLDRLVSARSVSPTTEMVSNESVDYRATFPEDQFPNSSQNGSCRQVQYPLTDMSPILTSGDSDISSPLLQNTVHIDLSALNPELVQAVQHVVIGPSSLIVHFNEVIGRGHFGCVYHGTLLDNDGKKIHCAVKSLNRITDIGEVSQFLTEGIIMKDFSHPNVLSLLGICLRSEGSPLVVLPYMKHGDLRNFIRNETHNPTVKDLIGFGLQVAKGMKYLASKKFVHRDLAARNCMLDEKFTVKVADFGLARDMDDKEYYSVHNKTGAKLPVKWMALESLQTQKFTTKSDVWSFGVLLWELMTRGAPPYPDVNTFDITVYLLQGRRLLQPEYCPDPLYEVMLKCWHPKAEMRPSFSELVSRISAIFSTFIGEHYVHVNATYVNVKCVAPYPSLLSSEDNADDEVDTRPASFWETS

TrkB(h) = molecular target: T11, TrkB(h) (Homo sapiens, UniProt Q16620)
T11 construct: purchased Eurofins (KinaseProfiler)
T11 sequence (Q16620 32-822): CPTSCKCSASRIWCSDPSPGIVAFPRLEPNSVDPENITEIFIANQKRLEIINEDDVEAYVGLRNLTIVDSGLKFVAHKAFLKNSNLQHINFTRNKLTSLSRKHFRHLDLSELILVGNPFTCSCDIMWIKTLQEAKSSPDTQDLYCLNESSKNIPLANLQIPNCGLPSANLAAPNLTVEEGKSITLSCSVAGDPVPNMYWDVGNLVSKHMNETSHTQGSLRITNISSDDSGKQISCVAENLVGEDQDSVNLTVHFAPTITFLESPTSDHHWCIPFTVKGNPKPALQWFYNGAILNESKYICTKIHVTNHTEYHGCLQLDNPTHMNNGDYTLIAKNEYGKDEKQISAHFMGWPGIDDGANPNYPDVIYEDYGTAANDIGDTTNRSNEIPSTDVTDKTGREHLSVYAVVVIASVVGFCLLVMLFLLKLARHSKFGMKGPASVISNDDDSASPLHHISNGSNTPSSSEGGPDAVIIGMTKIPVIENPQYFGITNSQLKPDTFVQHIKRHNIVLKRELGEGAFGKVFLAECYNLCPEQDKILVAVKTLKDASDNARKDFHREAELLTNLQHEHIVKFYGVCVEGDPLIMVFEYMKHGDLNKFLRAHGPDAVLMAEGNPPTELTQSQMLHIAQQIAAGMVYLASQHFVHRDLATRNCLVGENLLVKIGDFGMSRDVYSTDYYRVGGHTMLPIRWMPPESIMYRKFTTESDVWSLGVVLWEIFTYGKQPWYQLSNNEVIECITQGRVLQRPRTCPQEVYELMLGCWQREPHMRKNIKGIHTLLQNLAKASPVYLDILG

Molecule `COc1cc(OC)c(Cl)c(-c2ccc3c(NC(=O)c4ccc(N5CCNC(C)(C)C5)cc4)n[nH]c3n2)c1Cl` [3D185] has an inhibition at 0.01 µM (CK2(h); 10 nM) of 2%, an inhibition at 0.1 µM (CK2(h); 100 nM) of 9% and an inhibition at 1 µM (CK2(h); 1000 nM) of 9%. It also gave an inhibition at 0.01 µM (BRK(h); 10 nM) of -5%, an inhibition at 0.1 µM (BRK(h); 100 nM) of 7% and an inhibition at 1 µM (BRK(h); 1000 nM) of 46%. It also gave an inhibition at 0.01 µM ([1]; 10 nM) of -2%, an inhibition at 0.1 µM ([1]; 100 nM) of 2% and an inhibition at 1 µM ([1]; 1000 nM) of 2%. For the same molecule, the inhibition at 0.01 µM (JAK1(h); 10 nM) was 13%, the inhibition at 0.1 µM (JAK1(h); 100 nM) was 15% and the inhibition at 1 µM (JAK1(h); 1000 nM) was 20%. For the same molecule, the inhibition at 0.01 µM (NEK9(h); 10 nM) was -12%, the inhibition at 0.1 µM (NEK9(h); 100 nM) was -6% and the inhibition at 1 µM (NEK9(h); 1000 nM) was 14%. It also gave an inhibition at 0.01 µM (TGFBR2(h); 10 nM) of -10%, an inhibition at 0.1 µM (TGFBR2(h); 100 nM) of -5% and an inhibition at 1 µM (TGFBR2(h); 1000 nM) of -9%. The inhibition at 0.01 µM (MEK1(h); 10 nM) was 10%, the inhibition at 0.1 µM (MEK1(h); 100 nM) was 14% and the inhibition at 1 µM (MEK1(h); 1000 nM) was 8%. It also gave an inhibition at 0.01 µM (TSSK3(h); 10 nM) of 14%, an inhibition at 0.1 µM (TSSK3(h); 100 nM) of 5% and an inhibition at 1 µM (TSSK3(h); 1000 nM) of 5%. For the same molecule, the inhibition at 0.01 µM (DYRK3(h); 10 nM) was -24%, the inhibition at 0.1 µM (DYRK3(h); 100 nM) was -31% and the inhibition at 1 µM (DYRK3(h); 1000 nM) was -27%. The inhibition at 0.01 µM (Met(Y1248D)(h); 10 nM) was -12%, the inhibition at 0.1 µM (Met(Y1248D)(h); 100 nM) was -1% and the inhibition at 1 µM (Met(Y1248D)(h); 1000 nM) was 18%. It also gave an inhibition at 0.01 µM (TrkB(h); 10 nM) of 31%, an inhibition at 0.1 µM (TrkB(h); 100 nM) of 87% and an inhibition at 1 µM (TrkB(h); 1000 nM) of 97%.
